# Test results from patent US20080269155A1, “REMEDY OR PREVENTIVE FOR KIDNEY DISEASE AND METHOD OF DIAGNOSING KIDNEY DISEASE” (TORAY INDUSTRIES INC., priority 2002, published 2008).
# Experiments:
# [1] = tested on: casein kinase 2 α subunit; test: Western blot of casein kinase 2 α subunit protein in kidney tissue of nephritis rats given oligonucleotides; type: in vivo, rat; settings: 12 μg/day into kidney tissue by Alzet pump from one day before induction to 7th day
# Method: This example was carried out for studying the effect of administration of an antisense oligonucleotide against casein kinase 2 α subunit, so as to confirm the utility of the present invention. To rats (Wistar-Kyoto strain, male, body weight 190 to 210 g), rabbit anti-glomerular basement membrane antibody was intravenously administered (0.3 ml/kg) to induce nephritis. […] The nucleic acid molecules of the oligonucleotides were S-oligonucleotides containing phosphorothioate moieties, and a cationic liquid (Polyplus transfection) was used for making the uptake of the oligonucleotide easier. More particularly, the groups used in the experiment were normal group (normal rats to which the antisense oligonucleotide against casein kinase 2 α subunit and the antisense oligonucleotide were not administered, n=8), nephritis control group (nephritis rats to which the antisense oligonucleotide against casein kinase 2 α subunit and the antisense oligonucleotide were not administered, n=8), nephritis+antisense oligonucleotide against casein kinase 2 α subunit-administered group (group of the present invention, nephritis rats to which the antisense oligonucleotide against casein kinase 2 α subunit was administered, n=4), and nephritis+sense oligonucleotide of casein kinase 2 α subunit-administered group (negative control group, nephritis rats to which the sense oligonucleotide of casein kinase 2 α subunit was administered), totally four groups. On the 7th day from the induction, all rats were placed in metabolic cages, and urine excreted during 24 hours was collected and the amount of the urine was measured. The urine was then centrifuged at 3000 rpm for 15 minutes, and the urine protein in the supernatant was measured. Further, after the collection of urine, the kidneys were isolated, proteins were extracted from each kidney tissue by a conventional method, and the proteins (1 mg/ml, 20 μl) were electrophoresed (PAGERUN, ATTO, 40 mA, 84 min) on 12.5% polyacrylamide gel (PAGEL, ATTO). The electrophoresed proteins were blotted (100V, 90 min) on a PVDF membrane (Millipore). The membrane was blocked (Blocking Ace, Dainippon Pharmaceutical, 4° C., 1 hour), and washed three times (10 min) with PBS containing Tween 20. Then the membrane was incubated (at room temperature for 1 hour) with an anti-casein kinase 2 α subunit (originated from goat, Santa cruz, 100-fold diluted) as the primary antibody. […] After the incubation, the amounts of the casein kinase 2 α subunit protein were measured, respectively, using ECL reagent (Amersham). This measurement was carried out by taking photographs of the detected casein kinase 2 so as to make image files of the amount of the casein kinase 2 protein, and digitalizating the image file using a software NIH Image on Macintosh.
# nephritis rat models = test: Nephritis rat model induced by anti-glomerular basement membrane antibody: kidney function markers and kidney pathology; type: in vivo; settings: for urine protein: 24-hour urine on 7th day from induction
# [2] = oligonucleotide 12 μg/day into kidney tissue, FIG. 2
molecule,measurement,setting,value
5′-GTAATCATCTTGATTACCCCA-3′ (chemistry not given here),Protein Amount Ratio of Casein Kinase 2 α Subunit,[1]; no-oligonucleotide kidney = 1,prominently decreased
same,Protein Amount Ratio of Casein Kinase 2 α Subunit,"[1]; no-oligonucleotide kidney = 1, listed as Antisense Oligonucleotide",0.45
same,urine protein,nephritis rat models; [2],significantly decreased
5′-TGGGGTATCAATCAAGATGATTAC-3′ (chemistry not given here) [negative control],Protein Amount Ratio of Casein Kinase 2 α Subunit,[1]; no-oligonucleotide kidney = 1,did not decrease
same,Protein Amount Ratio of Casein Kinase 2 α Subunit,"[1]; no-oligonucleotide kidney = 1, listed as Sense Oligonucleotide",1.07
same,urine protein,nephritis rat models; [2],did not significantly decrease
"Cc1cc(O)c2c(c1)C(=O)c1cc(O)cc(O)c1C2=O [3-methyl-1,6,8-trihydroxyanthraquinone]",blood creatinine level,"nephritis rat models; 20 mg/l kg body weight intraperitoneally once a day, 14th day from induction, FIG. 6",almost normalized
same,urine protein,"nephritis rat models; 20 mg/l kg body weight intraperitoneally once a day, FIG. 5",significantly decreased
same,pathological finding of the kidney tissue,"nephritis rat models; 20 mg/l kg body weight intraperitoneally once a day, hematoxylin-eosin-stained specimens",improvements in the glomeruli and in the renal tubule interstitium were observed
O=c1cc(-c2ccc(O)cc2)oc2cc(O)cc(O)c12 [apigenin],urine protein,"nephritis rat models; apigenin 20 mg/l kg body weight intraperitoneally once a day, FIG. 4",significantly decreased
